Measured values published in patent US9625448B2, “Double caged GABA compounds, bis-CNB-GABA” (The Trustees of Princeton University, priority 2014, dated 2017).

Experiments:
[1] = system: GABAA receptors; assay: Monosynaptic IPSC, whole-cell patch clamp of dentate granule cells of rat hippocampal slices (Molnár & Nadler, 2000); type: cell-based
Procedure: FIGS. 25A-25B illustrate CNB-GABA depressed in a concentration-dependent manner the monosynaptic IPSC evoked by stimulation of the molecular layer as was observed by Molnár & Nadler, 2000. Referring to FIGS. 2A-25B, stimuli were delivered every 30 s. […] FIG. 25B illustrates cumulative concentration-response curve. Referring to FIG. 25B, the IC for CNB-GABA was essentially the same in the absence (28±9 mM, mean±S.D., n=5) and presence (32±13 mM, mean±S.D., n=4) of the GABAB receptor antagonist CGP 55845A. (Molnár & Nadler, 2000 European Journal of Pharmacology, 391, 255-262, which is incorporated herein by reference as if fully set forth).
FIG. 26 illustrates whole-cell patch clamp recordings from dentate granule cells of rat hippocampal slices reported by Molnár & Nadler, 2000. […] Holding potential of −80 mV. (Molnár & Nadler, 2000 European Journal of Pharmacology, 391, 255-262, which is incorporated herein by reference as if fully set forth, which is incorporated herein by reference as if fully set forth). […] FIG. 27 illustrates summary of the amplitudes of the current evoked by puff of 100 μM GABA and caged compounds around the soma reported by Matsuzaki et al., 2010. The amplitude was normalized to the mean current that was induced by GABA application alone. Left panel illustrates control (n=7); +10 mM CNI-GABA (n=7). […]

[2] = cited from earlier work

Question: With `NCCCC(=O)OC(C(=O)O)c1ccccc1[N+](=O)[O-]` (stereo not shown) [mono-CNB-GABA] as the molecule, how does the “concentration required to generate 33% reduction in response” value [1] read?
Answer: 14 µM

Question: And the IC33 ([1]; Table 1, calculated, q=0.33, in mM)?
Answer: 0.014

Question: And the “known quantum yield (QY) of standard” value ([2]; from Invitrogen)?
Answer: 0.16

Question: And the quantum yield ([2]; literature values)?
Answer: 0.14
